From US5556744A, “Methods and compositions for diagnosing and treating certain HIV infected patients” (The Trustees of the University of Pennsylvania, priority 1994, dated 1996)

Legend:
Design in all cases: species or system human
[1] = tested on: maternal HIV+ sera (antibodies); experiment: RIA / ELISA binding of maternal HIV+ sera to gp120 and gp41 peptides (Example 3)
Procedure, shortened: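 Peptides were coated at 10 μg/ml in carbonate buffer pH 9.6 and blocked with 1% BSA. Sera at 1:50 and 1:500 were incubated overnight at 4°C and detected with ¹²⁵I anti-human IgG (RIA) or HRP/TMB at OD450 (ELISA). Specific binding was taken as peptide minus no-peptide wells, scored as a ratio to normal human serum.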

[2] = tested on: maternal sera (antibodies); experiment: ELISA peptide-binding of maternal sera (Example 6)
Procedure, shortened: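 Third-trimester maternal sera, from HIV-1 transmitting and non-transmitting mothers, were tested by ELISA against ~16-residue peptides spanning HIV-1 external and transmembrane glycoproteins. Each serum was run with at least 40 peptides, and values are the percentage of sera binding each peptide.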

[3] = tested on: sera samples (antibodies); experiment: ELISA peptide-binding of maternal sera, MN strain peptides (Example 7); settings: n = 5
Procedure: This example provides additional sera screens using peptides corresponding to sequences of the MN strain. The sera samples (5 transmitters and 5 non-transmitters) were obtained from the NIH and differ from those screened in the previous studies. Peptide binding was analyzed by ELISA as described in Example 3.

[4] = Serum No. 1, Non-Transmission Group
[5] = Serum No. 2, Non-Transmission Group
[6] = Serum No. 3, Non-Transmission Group
[7] = Serum No. 4, Transmission Group
[8] = Serum No. 5, Transmission Group
[9] = Serum No. 6, Non-Transmission Group
[10] = Serum No. 7, Non-Transmission Group
[11] = Serum No. 8, Non-Transmission Group
[12] = Serum No. 9, Non-Transmission Group
[13] = Serum No. 10, Transmission Group
[14] = Serum No. 11, Non-Transmission Group
[15] = Serum No. 12, Non-Transmission Group
[16] = Serum No. 13, Transmission Group
[17] = Serum No. 14, Transmission Group
[18] = Serum No. 15, Transmission Group
[19] = Serum No. 16, Non-Transmission Group
[20] = Serum No. 17, Non-Transmission Group
[21] = Serum No. 18, Non-Transmission Group
[22] = Serum No. 19, Transmission Group
[23] = Serum No. 20, Non-Transmission Group

| Sequence | Binding of maternal HIV+ serum to peptide (sera/NHS ratio) [1, 4] | Binding of maternal HIV+ serum to peptide (sera/NHS ratio) [1, 5] | Binding of maternal HIV+ serum to peptide (sera/NHS ratio) [1, 6] | Binding of maternal HIV+ serum to peptide (sera/NHS ratio) [1, 7] | Binding of maternal HIV+ serum to peptide (sera/NHS ratio) [1, 8] | Binding of maternal HIV+ serum to peptide (sera/NHS ratio) [1, 9] | Binding of maternal HIV+ serum to peptide (sera/NHS ratio) [1, 10] | Binding of maternal HIV+ serum to peptide (sera/NHS ratio) [1, 11] | Binding of maternal HIV+ serum to peptide (sera/NHS ratio) [1, 12] | Binding of maternal HIV+ serum to peptide (sera/NHS ratio) [1, 13] | Binding of maternal HIV+ serum to peptide (sera/NHS ratio) [1, 14] | Binding of maternal HIV+ serum to peptide (sera/NHS ratio) [1, 15] | Binding of maternal HIV+ serum to peptide (sera/NHS ratio) [1, 16] | Binding of maternal HIV+ serum to peptide (sera/NHS ratio) [1, 17] | Binding of maternal HIV+ serum to peptide (sera/NHS ratio) [1, 18] | Binding of maternal HIV+ serum to peptide (sera/NHS ratio) [1, 19] | Binding of maternal HIV+ serum to peptide (sera/NHS ratio) [1, 20] | Binding of maternal HIV+ serum to peptide (sera/NHS ratio) [1, 21] | Binding of maternal HIV+ serum to peptide (sera/NHS ratio) [1, 22] | Binding of maternal HIV+ serum to peptide (sera/NHS ratio) [1, 23] | also measured |
| --- | --- | --- | --- | --- | --- | --- | --- | --- | --- | --- | --- | --- | --- | --- | --- | --- | --- | --- | --- | --- | --- |
| ELDKWASLWNWFNITNWLWY [Peptide 53] | - (specific OD450 or cpm of sera sample binding to peptide divided by the specific OD450 or cpm of NHS sample binding to peptide, which value is less than 2) | - (specific OD450 or cpm of sera sample binding to peptide divided by the specific OD450 or cpm of NHS sample binding to peptide, which value is less than 2) | - (specific OD450 or cpm of sera sample binding to peptide divided by the specific OD450 or cpm of NHS sample binding to peptide, which value is less than 2) | - (specific OD450 or cpm of sera sample binding to peptide divided by the specific OD450 or cpm of NHS sample binding to peptide, which value is less than 2) | - (specific OD450 or cpm of sera sample binding to peptide divided by the specific OD450 or cpm of NHS sample binding to peptide, which value is less than 2) | - (specific OD450 or cpm of sera sample binding to peptide divided by the specific OD450 or cpm of NHS sample binding to peptide, which value is less than 2) | ++ (which value is greater than 3) | - (specific OD450 or cpm of sera sample binding to peptide divided by the specific OD450 or cpm of NHS sample binding to peptide, which value is less than 2) | - (specific OD450 or cpm of sera sample binding to peptide divided by the specific OD450 or cpm of NHS sample binding to peptide, which value is less than 2) | - (specific OD450 or cpm of sera sample binding to peptide divided by the specific OD450 or cpm of NHS sample binding to peptide, which value is less than 2) | - (specific OD450 or cpm of sera sample binding to peptide divided by the specific OD450 or cpm of NHS sample binding to peptide, which value is less than 2) | - (specific OD450 or cpm of sera sample binding to peptide divided by the specific OD450 or cpm of NHS sample binding to peptide, which value is less than 2) | - (specific OD450 or cpm of sera sample binding to peptide divided by the specific OD450 or cpm of NHS sample binding to peptide, which value is less than 2) | - (specific OD450 or cpm of sera sample binding to peptide divided by the specific OD450 or cpm of NHS sample binding to peptide, which value is less than 2) | - (specific OD450 or cpm of sera sample binding to peptide divided by the specific OD450 or cpm of NHS sample binding to peptide, which value is less than 2) | - (specific OD450 or cpm of sera sample binding to peptide divided by the specific OD450 or cpm of NHS sample binding to peptide, which value is less than 2) | + (which value is between 2 to 3) | - (specific OD450 or cpm of sera sample binding to peptide divided by the specific OD450 or cpm of NHS sample binding to peptide, which value is less than 2) | - (specific OD450 or cpm of sera sample binding to peptide divided by the specific OD450 or cpm of NHS sample binding to peptide, which value is less than 2) | - (specific OD450 or cpm of sera sample binding to peptide divided by the specific OD450 or cpm of NHS sample binding to peptide, which value is less than 2) | Number of Non-Transmitters which bound to peptide ([2]; Non-Transmitters, N = 12): 0; Percent of Non-Transmitters which bound to peptide ([2]; Non-Transmitters, N = 12): 0%; Number of Transmitters which bound to peptide ([2]; Transmitters, N = 4): 0; Percent of Transmitters which bound to peptide ([2]; Transmitters, N = 4): 0%; % Bound, Non-Transmitter [3]: 0%; No. of Sera Samples Bound, Non-Transmitter [3]: 0; % Bound, Transmitter [3]: 0%; No. of Sera Samples Bound, Transmitter [3]: 0 |
| LRIVFAVLSVVNRVRQGYSP [Peptide 55] | - (specific OD450 or cpm of sera sample binding to peptide divided by the specific OD450 or cpm of NHS sample binding to peptide, which value is less than 2) | - (specific OD450 or cpm of sera sample binding to peptide divided by the specific OD450 or cpm of NHS sample binding to peptide, which value is less than 2) | - (specific OD450 or cpm of sera sample binding to peptide divided by the specific OD450 or cpm of NHS sample binding to peptide, which value is less than 2) | - (specific OD450 or cpm of sera sample binding to peptide divided by the specific OD450 or cpm of NHS sample binding to peptide, which value is less than 2) | - (specific OD450 or cpm of sera sample binding to peptide divided by the specific OD450 or cpm of NHS sample binding to peptide, which value is less than 2) | - (specific OD450 or cpm of sera sample binding to peptide divided by the specific OD450 or cpm of NHS sample binding to peptide, which value is less than 2) | - (specific OD450 or cpm of sera sample binding to peptide divided by the specific OD450 or cpm of NHS sample binding to peptide, which value is less than 2) | - (specific OD450 or cpm of sera sample binding to peptide divided by the specific OD450 or cpm of NHS sample binding to peptide, which value is less than 2) | - (specific OD450 or cpm of sera sample binding to peptide divided by the specific OD450 or cpm of NHS sample binding to peptide, which value is less than 2) | - (specific OD450 or cpm of sera sample binding to peptide divided by the specific OD450 or cpm of NHS sample binding to peptide, which value is less than 2) | - (specific OD450 or cpm of sera sample binding to peptide divided by the specific OD450 or cpm of NHS sample binding to peptide, which value is less than 2) | - (specific OD450 or cpm of sera sample binding to peptide divided by the specific OD450 or cpm of NHS sample binding to peptide, which value is less than 2) | - (specific OD450 or cpm of sera sample binding to peptide divided by the specific OD450 or cpm of NHS sample binding to peptide, which value is less than 2) | - (specific OD450 or cpm of sera sample binding to peptide divided by the specific OD450 or cpm of NHS sample binding to peptide, which value is less than 2) | - (specific OD450 or cpm of sera sample binding to peptide divided by the specific OD450 or cpm of NHS sample binding to peptide, which value is less than 2) | - (specific OD450 or cpm of sera sample binding to peptide divided by the specific OD450 or cpm of NHS sample binding to peptide, which value is less than 2) | - (specific OD450 or cpm of sera sample binding to peptide divided by the specific OD450 or cpm of NHS sample binding to peptide, which value is less than 2) | - (specific OD450 or cpm of sera sample binding to peptide divided by the specific OD450 or cpm of NHS sample binding to peptide, which value is less than 2) | - (specific OD450 or cpm of sera sample binding to peptide divided by the specific OD450 or cpm of NHS sample binding to peptide, which value is less than 2) | - (specific OD450 or cpm of sera sample binding to peptide divided by the specific OD450 or cpm of NHS sample binding to peptide, which value is less than 2) | % Bound, Non-Transmitter [3]: 0%; No. of Sera Samples Bound, Non-Transmitter [3]: 0; % Bound, Transmitter [3]: 0%; No. of Sera Samples Bound, Transmitter [3]: 0 |
